Values of other authors as cited in patent US20070072232A1, “Identification of genetic components of drug response” (Variagenics, Inc. a Delaware corporation, priority 2000, published 2007).
Where a name gives a salt, the structure may show the parent alone.

System: Alzheimer's disease
Conditions: per PDR

## Nc1c2c(nc3ccccc13)CCCC2 [Cognex, tacrine hydrochloride]
Patients receiving Cognex for Alzheimer's disease
  patients showing no change or minimal worsening of their disease: about 45%
Patients receiving Cognex
  Alzheimer's patients minimally improved: About 58%
  patients much improved: about 2%
